Laboratory results from patent publication US7524646B2 (priority 2001, dated 2009).
Numbering of substitutions follows the chain as printed. Numbers in names are those of the source.

B1: K277Q: ValRS of E. coli with single substitution K277Q in the editing domain (protein, UniProt P07118 1-951, looked up, variant K277Q)
Valine--tRNA ligase: MEKTYNPQDIEQPLYEHWEKQGYFKPNGDESQESFCIMIPPPNVTGSLHMGHAFQQTIMDTMIRYQRMQGKNTLWQVGTDHAGIATQMVVERKIAAEEGKTRHDYGREAFIDKIWEWKAESGGTITRQMRRLGNSVDWERERFTMDEGLSNAVKEVFVRLYKEDLIYRGKRLVNWDPKLRTAISDLEVENRESKGSMWHIRYPLADGAKTADGKDYLVVATTRPETLLGDTGVAVNPEDPRYKDLIGKYVILPLVNRRIPIVGDEHADMEKGTGCVQITPAHDFNDYEVGKRHALPMINILTFDGDIRESAQVFDTKGNESDVYSSEIPAEFQKLERFAARKAVVAAVDALGLLEEIKPHDLTVPYGDRGGVVIEPMLTDQWYVRADVLAKPAVEAVENGDIQFVPKQYENMYFSWMRDIQDWCISRQLWWGHRIPAWYDEAGNVYVGRNEDEVRKENNLGADVVLRQDEDVLDTWFSSALWTFSTLGWPENTDALRQFHPTSVMVSGFDIIFFWIARMIMMTMHFIKDENGKPQVPFHTVYMTGLIRDDEGQKMSKSKGNVIDPLDMVDGISLPELLEKRTGNMMQPQLADKIRKRTEKQFPNGIEPHGTDALRFTLAALASTGRDINWDMKRLEGYRNFCNKLWNASRFVLMNTEGQDCGFNGGEMTLSLADRWILAEFNQTIKAYREALDSFRFDIAAGILYEFTWNQFCDWYLELTKPVMNGGTEAELRGTRHTLVTVLEGLLRLAHPIIPFITETIWQRVKVLCGITADTIMLQPFPQYDASQVDEAALADTEWLKQAIVAVRNIRAEMNIAPGKPLELLLRGCSADAERRVNENRGFLQTLARLESITVLPADDKGPVSVTKIIDGAELLIPMAGLINKEDELARLAKEVAKIEGEISRIENKLANEGFVARAPEAVIAKEREKLEGYAEAKAKLIEQQAVIAAL
B2: D230N: ValRS of E. coli with single substitution D230N in the editing domain (protein, UniProt P07118 1-951, looked up, variant D230N)
Valine--tRNA ligase: B1 Valine--tRNA ligase with D230N, Q277K
B3: V276A: ValRS of E. coli with single substitution V276A in the editing domain (protein, UniProt P07118 1-951, looked up, variant V276A)
Valine--tRNA ligase: B1 Valine--tRNA ligase with V276A, Q277K
B4: wild-type enzyme: wild-type valyl-tRNA synthetase (ValRS) of E. coli (protein, UniProt P07118 1-951, looked up)
Valine--tRNA ligase: B1 Valine--tRNA ligase with Q277K

Columns and labels:
[1] = test system: strain PS2306 (wild type ileS gene, plasmid pVDC433); assay type: cell-based, E. coli; settings: 0.1 ml of 25 mM amino acid in central well, 37 degrees, 24 hours
Method: (§1) Strains PS2306 and PS2449 are tested for their sensitivity to artificial amino acids which present a steric resemblance to isoleucine. The cells are cultivated in MS mineral medium, succinate (0.2%), arabinose (0.2%) for 24 h at 37 degrees centigrade and diluted at 1/250in MS mineral medium. 0.5 ml of this cell suspension are spread on a Petri dish containing 25 ml of MS medium supplemented with succinate (0.2%) and arabinose (0.2%). A well is then prepared in the middle of the dish and filled with 0.1 ml of an amino acid solution: • 1) 25 mM S-methyl cysteine • 2) 25 mM homocysteine • 3) 25 mM o-methyl-L-serine • 4) 25 mM Norleucine • 5) 25 mM Norvaline
(§2) The Petri dishes are then incubated at 37 degrees centigrade for 24 hours and the appearance of a zone of inhibition around the well is recorded. The diameters of the zones of attenuated growth are measured as follows: […]

[2] = test system: strain PS2449 (mutated gene ileS ala11, plasmid pTLH33); assay type: cell-based, E. coli; settings: 0.1 ml of 25 mM amino acid in central well, 37 degrees, 24 hours
Method: as §1, §2

strain β5520 = assay: Suppression of thymidine auxotrophy by S-carbamoyl-cysteine; assay type: cell-based, E. coli; settings: absence of thymidine, aerobic
Method: One-step selection scheme. For the one-step selections, cysteine oxidation under aerobiosis and subsequent cystine precipitation from the growth medium was avoided by use of the non-oxidizable precursor S-carbamoyl-cysteine (Scc). Scc is a poor precursor of cysteine and sustains growth of a Cys-auxotrophic E. coli strain less efficiently than cysteine. However, at concentrations above 1 mM, Scc gave rise to suppression of the thymidine auxotrophy of strain β5520, while in the absence of thymidine no growth was detectable below 1 mM Scc. When β5419 cells bearing the thyA:Val146GUA allele on a high copy plasmid were plated on mineral glucose plates supplemented with Scc (3 mM), no colonies grew after prolonged incubation at 30° C. (The experiment was designed to detect a mutant at a frequency of 10^−10.) To increase the mutation frequency, a mutS::spc+ (33) mutator allele was introduced in the genetic background of strain β5419 by P1 transduction, yielding strain β5432 (the mutS::spc+ disruption disables the mismatch repair system and leads to random transitions and frameshifts (34)). Colonies then appeared on the same medium with a frequency of about 10^−8. No colonies were found on plates lacking Scc.

[^3H]Thr-tRNAval = Deacylation of mischarged Thr-tRNAVal by ValRS enzymes; assay type: biochemical, E. coli; settings: 2 nM enzyme, room temperature
Method: FIG. 5B: Histogram representation of the inhibition zone diameters of DvalS::kanR strains harboring each of the ValRS editing mutants on plasmid in response to exogenous Abu. Effects range from mild to severe. Histogram representation of the percentage of mischarged Thr-tRNAVal remaining after incubation with 2 nM enzyme for 15 minutes at room temperature. Both show a distinct range in the severity of editing defects caused by these point mutations. Taken together this illustrates a correlation between the ability of the mutant enzyme to deacylate mischarged amino acids from tRNAVal in vitro and the degree of in vivo toxicity.
(§3) Misacylation of Thr onto tRNAval was performed in the same conditions except 5.86 μM [^3H]Thr was substituted forVal in the reaction. To test deacylation rates for these enzymes it was necessary to generate [^3H]Thr-tRNAval. […] Enzyme was incubated with 2.5 μM tRNAval and 45 uM [^3H]Thr, incubated at 37 C. for 45 minutes, extracted twice in phenol:chloroform, and ethanol precipitated. Pellet was dissolved in 100 μL sterile H2O and scintillation counting was used to determine the success of the reaction. Deacylation reactions, done in triplicate for each enzyme, were performed in 155 mM Tris-HCl (pH 7.5), 100 μg/ml BSA, 10 mM MgCl2. At room temperature 2 nM enzyme was combined with [^3H]Thr-tRNAval, at 3, 6, 9, 16, and 30 minutes aliquots (9 μL) of the reaction mixture were precipitated with tricholoracetic acid, and the amount of misaminoacylated [^3H]Thr-tRNAval remaining in the sample was determined by scintillation counting. A no enzyme control reaction was included to provide reference point.

tRNA^Val = assay: Misacylation of tRNAVal with Thr; assay type: biochemical, E. coli; settings: pH 7.5, 37° C.
Method: FIG. 2B: A graph showing misaminoacylation of tRNA^Val with Thr by the T222P mutant enzyme at pH 7.5 and 37° C. The wild-type (WT) and mutant alleles were cloned under the control of a PBAD promoter (30). The enzymes were partially purified from a laboratory strain lacking the chromosomal copy of the valS gene (ΔvalS::kan+). The purification and aminoacylation procedures were adapted from Hendrickson et al. (31). (Main panel) Misaminoacylation of tRNA^Val with Thr by the two enzymes. (Inset) Aminoacylation of tRNA^Val with Val by the two enzymes.
Aminoaclyation Assay, Misacylation, and Deacylation: Aminoacylation assays were performed at 37 C. in a 100 uL volume containing buffer (20 mM HEPES, 0.1 mM EDTA disodium salt, 0.15M NH4Cl, 10 ug/mL BSA pH 7.5), […] MgCl2, 0.7 μM [^3H]Val, 20 μM cold Val, 2 μM tRNAval (Sigma) and 20 nM ValRS enzyme (adapted from Hendrickson et al. 2000). Aliquots (10 μL) of the reaction mixture were precipitated with tricholoracetic acid, and the level of aminoacylation of the tRNA was determined by scintillation counting.
as §3

Molecule	diameters of the zones of attenuated growth [1]	diameters of the zones of attenuated growth [2]	concentration giving suppression of the thymidine auxotrophy (strain β5520)	deacylation of Thr-tRNA^Val in vitro ([^3H]Thr-tRNAval)	misacylation of tRNA^Val with Thr (tRNA^Val)
N[C@@H](CCS)C(=O)O [Homocysteine]	2.1 cm	2.9 cm	–	–	–
CCCC[C@H](N)C(=O)O [Norleucin, Norleucine]	2.9 cm	3.4 cm	–	–	–
CCC[C@H](N)C(=O)O [Norvaline]	3.7 cm	8.0 cm	–	–	–
COC[C@H](N)C(=O)O [O-methyl-L-serine]	2.2 cm	5.6 cm	–	–	–
CSC[C@H](N)C(=O)O [S-methyl-L-cysteine]	1.3 cm	3.0 cm	–	–	–
NC(=O)SC[C@H](N)C(=O)O [Scc, S-carbamoyl-cysteine]	–	–	above 1 mM	–	–
B1	–	–	–	most severe defects	high levels of mischarged Thr-tRNA^Val
B2	–	–	–	slowed rate of deacylation	low levels of mischarging
B3	–	–	–	closer to wild-type ValRS	low levels of mischarging
B4	–	–	–	–	no detectable mischarged tRNA^Val
